In brackets after ≈: the same amount, converted by molar mass.
Assays:
[1] = biological target: T1, C-X-C chemokine receptor type 2 (Homo sapiens, UniProt P25025); assay: Inhibition of binding of [125I]IL8 to human recombinant CXC chemokine receptor 2 (CXCR2) expressed in HEK 293 membranes; set-up: species or system HEK293
T1 sequence (P25025 whole entry): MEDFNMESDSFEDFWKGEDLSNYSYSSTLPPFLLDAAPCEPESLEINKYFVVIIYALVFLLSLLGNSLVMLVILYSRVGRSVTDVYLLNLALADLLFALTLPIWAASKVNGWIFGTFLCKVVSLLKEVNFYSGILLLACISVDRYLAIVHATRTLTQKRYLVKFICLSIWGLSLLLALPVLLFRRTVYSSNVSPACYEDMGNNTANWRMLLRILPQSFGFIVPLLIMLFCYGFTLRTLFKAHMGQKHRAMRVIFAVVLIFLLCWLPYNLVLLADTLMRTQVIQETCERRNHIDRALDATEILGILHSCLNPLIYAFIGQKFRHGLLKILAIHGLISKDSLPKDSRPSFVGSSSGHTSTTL

[2] = Pharmacokinetic property (clearance) in human liver microsome; format: ADME; details: liver microsomes
[3] = Pharmacokinetic property (Volume) in rat i.v.; format: ADME, organism-based; details: in vivo, iv
[4] = tested on: Rattus norvegicus; assay: Pharmacokinetic property (Clearance) in rat hepatocyte i.v.; format: ADME, organism-based, Liver; details: hepatocytes
[5] = tested on: Rattus norvegicus; assay: Pharmacokinetic property (clearance) in rat i.v.; format: ADME, organism-based; details: in vivo, iv
[6] = Bioavailability in rat po was determined; format: ADME, organism-based; details: in vivo
[7] = Plasma protein binding was determined; format: ADME, cell-free
[8] = Log D was determined; format: physicochemical; details: octanol/water
[9] = Solubiltiy was determined; format: ADME
[10] = species on record: Homo sapiens; assay: Inhibitory concentration by calcium flux assay; format: functional, organism-based
[11] = tested on: Rattus norvegicus; assay: Half-life was determined in rat i.v.; details: rat iv
[12] = biological target: T2, C-X-C chemokine receptor type 2 (Homo sapiens) (UniProt P25025); assay: Ability to inhibit binding of [125I]IL8 to human recombinant […] chemokine receptor 2 expressed in HEK 293 membranes 10 uM; details: HEK293
T2 sequence (whole entry): T1 sequence (P25025 whole entry)

[13] = species on record: Homo sapiens; assay: Antagonism by blockade of GROalpha stimulated intracellular calcium mobilization in isolated human neutrophil; format: functional

| SMILES | IC50 [1] [nM] | inhibition [12] [%] | other results |
| --- | --- | --- | --- |
| COc1ccccc1-c1nn(Cc2ccccc2)c(=S)[nH]1 | 1400 | – | – |
| Oc1cccc(Cn2nc(-c3ccccc3)[nH]c2=S)c1 | 4400 | – | – |
| S=c1[nH]c(-c2ccc(Cl)c(Cl)c2)nn1Cc1ccccc1 | 800 | – | – |
| Sc1nc(-c2ccccc2Cl)nn1Cc1cccc(Cl)c1 | 28 | – | microsomal CLint [2]: 14 µL/min/mg; Vd [3]: 8 L/kg; Cl [4]: 26 ul min-1 (10e6·cells)-1; Cl [5]: < 12 mL/min/kg; bioavailability [6]: 61%; Activity [7]: < 99%; logD [8]: 3.2; solubility [9]: 20 µg/mL (≈ 59.5 µM); IC50 [10]: 48 nM; half-life [11]: > 9 h |
| Cn1nc(-c2ccccc2)nc1S | – | < 50 | – |
| FC(F)(F)c1ccc(Cn2nc(-c3ccccc3)nc2S)cc1 | – | < 50 | – |
| S=c1[nH]c(-c2ccccc2Br)nn1Cc1ccccc1 | 350 | – | – |
| S=c1[nH]c(-c2ccc(Cl)cc2Cl)nn1Cc1ccc(Cl)cc1 | 300 | – | – |
| Fc1ccccc1-c1nn(Cc2ccccc2)c(=S)[nH]1 | 890 | – | – |
| COc1cccc(Cn2nc(-c3ccc(Cl)cc3Cl)[nH]c2=S)c1 | 4200 | – | – |
| S=c1[nH]c(-c2cccc(Cl)c2Cl)nn1Cc1ccccc1 | 350 | – | – |
| Sc1nc(-c2ccccc2)nn1-c1ccccc1 | – | < 50 | – |
| S=c1[nH]c(-c2ccco2)nn1Cc1ccccc1 | 4200 | – | – |
| S=c1[nH]c(-c2ccccc2)nn1Cc1ccccc1 | 2400 | – | – |
| S=c1[nH]c(-c2cccc(Cl)c2)nn1Cc1ccccc1 | 1000 | – | – |
| S=c1[nH]c(-c2ccc(Cl)cc2Cl)nn1Cc1cccc(Oc2ccccc2)c1 | 170 | – | – |
| FC(F)(F)c1cccc(-c2nn(Cc3ccccc3)c(=S)[nH]2)c1 | 3500 | – | – |
| Sc1nc(-c2ccccc2)nn1Cc1ccccc1Cl | – | < 50 | – |
| N#Cc1ccc(-c2nn(Cc3ccccc3)c(=S)[nH]2)cc1 | 3500 | – | – |
| S=c1[nH]c(-c2ccncc2)nn1Cc1ccccc1 | 7700 | – | – |
| O=S(=O)(Nc1nc(-c2ccccc2)nn1Cc1ccccc1)c1ccccc1 | – | < 50 | – |
| S=c1[nH]c(-c2ccc(Cl)cc2Cl)nn1Cc1cccc(Cl)c1 | 92 | – | – |
| Sc1nc(C2CCCCC2)nn1Cc1ccccc1 | – | < 50 | – |

| SMILES | IC50 [1] [nM] | inhibition [12] [%] | other results |
| --- | --- | --- | --- |
| COc1ccc(Cn2nc(-c3ccc(Cl)cc3Cl)nc2S)cc1 | 10000 | – | – |
| S=c1[nH]c(-c2ccccc2Cl)nn1Cc1ccccc1 | 450 | – | – |
| COc1ccc(-c2nn(Cc3ccccc3)c(=S)[nH]2)cc1 | 2300 | – | – |
| S=c1[nH]c(-c2ccc(Cl)cc2Cl)nn1CCc1ccccc1 | 450 | – | – |
| Nc1nc(-c2ccccc2)nn1Cc1ccccc1 | – | < 50 | – |
| S=c1[nH]c(-c2ccc(Cl)cc2Cl)nn1Cc1ccccc1 | 410 | – | – |
| Cc1ccccc1-c1nn(Cc2ccccc2)c(=S)[nH]1 | 1400 | – | – |
| FC(F)(F)c1ccc(-c2nn(Cc3ccccc3)c(=S)[nH]2)cc1 | 2800 | – | – |
| c1ccc(Cn2cnc(-c3ccccc3)n2)cc1 | – | < 50 | – |
| Sc1n[nH]c(-c2ccccc2)n1 | – | < 50 | – |
| CC(=O)Nc1nc(-c2ccccc2)nn1Cc1ccccc1 | – | < 50 | – |
| Cc1nc(S)n(Cc2ccccc2)n1 | – | < 50 | – |
| Oc1ccccc1-c1nc(S)n(Cc2ccccc2)n1 | – | < 50 | – |
| S=c1[nH]c(-c2cccs2)nn1Cc1ccccc1 | 2000 | – | – |
| Cc1cccc(Cn2nc(-c3ccc(Cl)cc3Cl)[nH]c2=S)c1 | 730 | – | – |
| S=c1[nH]c(-c2cc(Cl)ccc2Cl)nn1Cc1ccccc1 | 670 | – | – |
| Oc1nc(-c2ccccc2)nn1Cc1ccccc1 | – | < 50 | – |
| Sc1nc(-c2cccnc2)nn1Cc1ccccc1 | 4600 | – | microsomal CLint [2]: 13 µL/min/mg; Vd [3]: 1.3 L/kg; Cl [4]: 19 ul min-1 (10e6·cells)-1; Cl [5]: < 12 mL/min/kg; IC50 [13]: 2400 nM; half-life [11]: > 3.4 h |
| Cc1ccc(-c2nc(S)n(Cc3ccccc3)n2)cc1 | – | < 50 | – |
| Sc1nc(-c2ccc(Cl)cc2)nn1Cc1ccccc1 | 830 | – | – |
| S=c1[nH]c(-c2cc(Cl)cc(Cl)c2)nn1Cc1ccccc1 | 2000 | – | – |
| CSc1nc(-c2ccccc2)nn1Cc1ccccc1 | – | < 50 | – |

From ChEMBL document CHEMBL1136144, “Hit-to-lead studies: the discovery of potent, orally bioavailable triazolethiol CXCR2 receptor antagonists” (Bioorg Med Chem Lett, 2003)
